Columns and labels:
[1] = system: MDA-MB-231 breast cancer cells; experiment: MTT cell viability assay, MDA-MB-231; assay type: cell-based; details: Homo sapiens, 72 h
Description: (§1) All of the synthesized compounds (7a–f) were studied to test their anticancer activity toward the estrogen receptor-positive (ER+) MCF-7 and the triple-negative MDA-MB-231 breast cancer cells (ER-, PR- and HER-2/Neu not overexpressed) and A2058 melanoma cells. Cells were incubated for 72 h with different concentrations of the compounds, and then the viability was checked by the MTT assay. […] Moreover, we checked the cytotoxicity of all of the synthesized compounds against the human MCF-10A non-malignant breast epithelial cells and mouse BALB/3T3 embryonic fibroblasts, in order to evaluate their selectivity on cancer cells.
(§2) The used cell lines (breast cancer cell lines MCF-7 and MDA-MB-231, melanoma cell line A2058 and human mammary epithelial cell line MCF-10A) were obtained from American Type Culture Collection (ATCC, Manassas, VA, USA) and cultured as already reported. The mouse BALB/3T3 embryonic fibroblasts were also purchased from American Type Culture Collection (ATCC, Manassas, VA, USA) and cultured in DMEM high glucose supplemented with 10% bovine calf serum (BCS) and 100 U mL^−1 penicillin/streptomycin.
(§3) MTT assay (Sigma Aldrich (St. Louis, MO, USA)) was performed for evaluating the in vitro anticancer activities of the compounds, as previously indicated. Different concentrations (0.1, 1, 10, 25, 50, and 100 μM) of the compounds were employed, with a 72 h endpoint. IC50 values were obtained from the percent (%) of control using GraphPad Prism 9 (GraphPad Software, La Jolla, CA, USA).

[2] = system: MCF-7 breast cancer cells; experiment: MTT cell viability assay, MCF-7; assay type: cell-based, human; details: Homo sapiens, MCF7; MTT, 72 h
Description: as §1, §2, §3

[3] = system: A2058 melanoma cells; experiment: MTT cell viability assay, A2058; assay type: cell-based; details: Homo sapiens, 72 h
Description: as §1, §2, §3

[4] = system: mouse BALB/3T3 embryonic fibroblasts; experiment: MTT cytotoxicity assay, BALB/3T3; assay type: cell-based; details: 72 h, normal cells
Description: as §1, §2, §3

[5] = system: human MCF-10A non-malignant breast epithelial cells; experiment: MTT cytotoxicity assay, MCF-10A; assay type: cell-based; details: 72 h, normal cells
Description: as §1, §2, §3

[6] = target: T1, hTopo I (Homo sapiens, UniProt P11387); experiment: hTopo I relaxation assay; assay type: biochemical; parameters: key to Topoisomerase Inhibition hTopo I: (+) inhibition; (−) no inhibition; (+/−) partial inhibition; details: for hTopo I activity inhibition (in words): supercoiled pHOT1
T1 construct: purchased TopoGEN, Port Orange, FL, USA
T1 sequence (P11387 1-765): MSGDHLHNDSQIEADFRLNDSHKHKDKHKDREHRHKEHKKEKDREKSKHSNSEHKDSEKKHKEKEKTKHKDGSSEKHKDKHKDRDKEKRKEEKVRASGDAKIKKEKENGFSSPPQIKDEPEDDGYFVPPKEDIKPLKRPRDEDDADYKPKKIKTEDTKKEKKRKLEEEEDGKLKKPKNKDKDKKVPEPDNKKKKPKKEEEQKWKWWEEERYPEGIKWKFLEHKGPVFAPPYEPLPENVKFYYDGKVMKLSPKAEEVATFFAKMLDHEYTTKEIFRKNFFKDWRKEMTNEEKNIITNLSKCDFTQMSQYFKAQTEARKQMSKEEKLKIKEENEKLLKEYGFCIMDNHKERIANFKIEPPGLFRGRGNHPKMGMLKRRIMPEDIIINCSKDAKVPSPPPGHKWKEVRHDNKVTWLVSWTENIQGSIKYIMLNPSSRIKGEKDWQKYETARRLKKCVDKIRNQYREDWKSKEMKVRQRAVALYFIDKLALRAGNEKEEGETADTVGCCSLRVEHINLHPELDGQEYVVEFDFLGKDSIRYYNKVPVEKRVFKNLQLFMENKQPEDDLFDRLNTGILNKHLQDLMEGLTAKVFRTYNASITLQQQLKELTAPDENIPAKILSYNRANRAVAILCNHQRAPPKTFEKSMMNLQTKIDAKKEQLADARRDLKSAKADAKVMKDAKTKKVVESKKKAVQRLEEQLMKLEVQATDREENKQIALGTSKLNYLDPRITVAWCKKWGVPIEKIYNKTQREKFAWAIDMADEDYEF
Excerpt: Thiazoles and their derivatives are extensively recognized as chemical nuclei of great interest for producing molecules with multiple biological properties. In particular, several compounds bearing these heterocycles were studied for their capability to interfere with DNA topoisomerases (Topos), ubiquitous enzymes essential in several key cellular processes. In recent years, these enzymes have become popular targets in cancer therapy; indeed, the topoisomerase inhibitors can induce damage to genome integrity. Consequently, the inhibition of topoisomerases leads to cell death by apoptosis and, thus, is fatal. Thus, we carried out two specific tests in vitro for both of the Topos, namely the hTopo I relaxation and the hTopo II decatenation assays. For the hTopo I relaxation assay, we exposed the enzyme to the most interesting compounds, 7b–7e, at the final concentration of 10 µM for 1 h at 37 °C, using as substrate the supercoiled pHOT1 (see Section 4 Materials and Methods for more details). […] Contrarily, in the CTRL lane, where the hTopo I was exposed to only vehicle (DMSO), several bands due to pHOT1 DNA cleavage were present (Figure 3, lane C). […] In Figure 3, panel B, the hTopo I inhibition results using ellipticine, as reference molecule are shown. […] An electrophoretic mobility shift of the pHOT1 DNA was also noticeable, due to the intercalating properties of ellipticine.
(§4) hTopo I relaxation assays were performed by incubating the substrate (supercoiled pHOT1) with the recombinant hTopo I (TopoGEN, Port Orange, FL, USA) and compounds, as indicated in the supplier protocol (TopoGEN, Port Orange, FL, USA), with some revisions. hTopo II decatenation assays were conducted by incubating the kinetoplast DNA substrate (kDNA) with the hTopo II (TopoGEN, Port Orange, FL) and studied compounds, as indicated in the supplier procedures (TopoGEN, Port Orange, FL, USA), with some changes as in [80].
Figure 3 hTopo I relaxation assay. Plasmid pHOT1, used as substrate, was incubated with hTopo I with or without the studied compounds 7b–7e (10 µM concentration), panel (A), and with or without ellipticine (10 and 50 µM concentration), panel (B). Lane A, relaxed DNA marker; lane B, pHOT1 supercoiled DNA, lane C, CTRL (DMSO), lane D–G, compounds 7b–7e 10 µM, respectively. Lane 1, pHOT1 supercoiled DNA; lane 2, CTRL (DMSO), lanes 3–4, ellipticine 10 and 50 µM, respectively.

[7] = target: T2, hTopo II (Homo sapiens, UniProt P11388); experiment: hTopo II decatenation assay; assay type: biochemical; parameters: key to Topoisomerase Inhibition hTopo II: (+) inhibition; (−) no inhibition; (+/−) partial inhibition; details: for hTopo II activity inhibition (in words): kDNA
T2 construct: purchased TopoGEN, Port Orange, FL
Description: The linear kDNA (Figure 4a,b, lanes A), decatenated kDNA (Figure 4a,b, lanes B) and the catenated circles of kDNA (Figure 4a,b, lanes C) were used as markers. A parallel experiment was performed using ellipticine as reference molecule.
as §4
Figure 4 hTopo II decatenation assay. […] The same experiment was performed using ellipticine (c). Lane 1, decatenated kDNA marker; lane 2, linear kDNA marker; lane 3, CTRL (DMSO), lanes 4–5, ellipticine 10 and 50 µM, respectively.

T2 sequence (P11388 whole entry): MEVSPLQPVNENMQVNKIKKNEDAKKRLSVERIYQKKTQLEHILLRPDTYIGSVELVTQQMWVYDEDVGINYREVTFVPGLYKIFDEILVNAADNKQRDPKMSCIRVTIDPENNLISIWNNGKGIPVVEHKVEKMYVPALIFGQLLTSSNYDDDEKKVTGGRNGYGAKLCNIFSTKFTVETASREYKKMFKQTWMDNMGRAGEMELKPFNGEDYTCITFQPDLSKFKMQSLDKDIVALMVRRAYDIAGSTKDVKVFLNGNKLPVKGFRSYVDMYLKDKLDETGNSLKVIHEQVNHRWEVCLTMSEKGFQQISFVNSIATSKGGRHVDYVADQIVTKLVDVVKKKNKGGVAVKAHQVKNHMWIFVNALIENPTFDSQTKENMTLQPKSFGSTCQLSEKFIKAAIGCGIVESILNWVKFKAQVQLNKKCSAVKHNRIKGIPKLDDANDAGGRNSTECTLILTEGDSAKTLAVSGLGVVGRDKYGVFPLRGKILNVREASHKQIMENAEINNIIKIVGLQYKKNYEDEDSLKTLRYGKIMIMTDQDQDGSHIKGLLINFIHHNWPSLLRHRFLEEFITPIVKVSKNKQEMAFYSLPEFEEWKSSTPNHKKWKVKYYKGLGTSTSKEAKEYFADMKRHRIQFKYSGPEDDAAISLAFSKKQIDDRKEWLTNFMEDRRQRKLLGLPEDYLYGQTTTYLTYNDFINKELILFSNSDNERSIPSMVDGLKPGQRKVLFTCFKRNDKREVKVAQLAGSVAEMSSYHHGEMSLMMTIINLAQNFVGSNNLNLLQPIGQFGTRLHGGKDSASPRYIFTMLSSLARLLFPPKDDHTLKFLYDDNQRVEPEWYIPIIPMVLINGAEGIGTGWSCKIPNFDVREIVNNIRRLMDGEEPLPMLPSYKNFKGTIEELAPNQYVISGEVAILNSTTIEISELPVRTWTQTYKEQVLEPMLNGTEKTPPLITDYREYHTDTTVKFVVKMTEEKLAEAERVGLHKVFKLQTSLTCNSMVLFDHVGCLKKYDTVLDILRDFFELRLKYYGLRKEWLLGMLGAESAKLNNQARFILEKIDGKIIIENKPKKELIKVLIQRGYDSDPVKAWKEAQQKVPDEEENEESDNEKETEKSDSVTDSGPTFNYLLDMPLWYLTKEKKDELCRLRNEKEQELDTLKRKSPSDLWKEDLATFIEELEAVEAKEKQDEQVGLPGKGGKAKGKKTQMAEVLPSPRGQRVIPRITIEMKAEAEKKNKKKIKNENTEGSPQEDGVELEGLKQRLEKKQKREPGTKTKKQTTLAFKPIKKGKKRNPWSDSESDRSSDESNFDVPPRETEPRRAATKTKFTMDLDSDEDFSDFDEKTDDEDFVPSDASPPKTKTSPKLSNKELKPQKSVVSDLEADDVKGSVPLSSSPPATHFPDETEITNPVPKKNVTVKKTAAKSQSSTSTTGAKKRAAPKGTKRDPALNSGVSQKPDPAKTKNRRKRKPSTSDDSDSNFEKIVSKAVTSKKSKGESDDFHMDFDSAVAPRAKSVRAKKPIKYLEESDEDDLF

Work on `COc1cc(/C=C2\SC(=O)N(CC(=O)Nc3nccs3)C2=O)cc(OC)c1OC` [compound 7a, (Z)-2-(5-(3,4,5-Trimethoxybenzylidene)thiazolidin-2,4-dion-3-yl)-N-(thiazol-2-yl)acetamide] yielded an IC50 [1] of 27.5 ± 0.9 µM, an IC50 [2] greater than 100 µM and an IC50 [3] greater than 100 µM. For the same compound, the IC50 [4] was 89.2 ± 1.1 µM, the IC50 [5] was greater than 100 µM and the melting point was 245 to 247 °C.

In the case of `COc1cc(/C=C2\SC(=O)N(CC(=O)Nc3nc(-c4ccccc4)cs3)C2=O)cc(OC)c1OC` [compound 7b, (Z)-2-(5-(3,4,5-Trimethoxybenzylidene)thiazolidin-2,4-dion-3-yl)-N-(4-phenylthiazol-2-yl)acetamide], the IC50 [1] is reported as 17.9 ± 1.1 µM, the IC50 [2] is reported as 8.5 ± 1.2 µM and the IC50 [3] is reported as 3.5 ± 1.1 µM. For the same compound, the IC50 [4] was greater than 100 µM, the IC50 [5] was greater than 100 µM and the “Topoisomerase Inhibition hTopo I” value ([6]; 10 µM) was “−”. For the same compound, the “hTopo I activity inhibition (in words)” value ([6]; 10 µM, 1 h, 37 °C) was “not able to inhibit the relaxation activity”, the “Topoisomerase Inhibition hTopo II” value ([7]; 10 µM) was “−” and the “Topoisomerase Inhibition hTopo II” value ([7]; 50 µM) was “−”. For the same compound, the “hTopo II activity inhibition (in words)” value ([7]; 50 µM) was “unable to inhibit the hTopo II activity”.

Compound `COc1cc(/C=C2\SC(=O)N(CC(=O)Nc3nc(-c4ccc(C)cc4)cs3)C2=O)cc(OC)c1OC` [compound 7c, (Z)-2-(5-(3,4,5-Trimethoxybenzylidene)thiazolidin-2,4-dion-3-yl)-N-(4-(4-methylphenyl)thiazol-2-yl)acetamide] has an IC50 [1] of 32.8 ± 0.6 µM, an IC50 [2] of 19.5 ± 0.6 µM and an IC50 [3] of 4.8 ± 1 µM. For the same compound, the IC50 [4] was greater than 100 µM, the IC50 [5] was 46.4 ± 1.1 µM and the “Topoisomerase Inhibition hTopo I” value ([6]; 10 µM) was “−”. For the same compound, the “hTopo I activity inhibition (in words)” value ([6]; 10 µM, 1 h, 37 °C) was “not able to inhibit the relaxation activity”, the “Topoisomerase Inhibition hTopo II” value ([7]; 10 µM) was “−” and the “Topoisomerase Inhibition hTopo II” value ([7]; 50 µM) was “+”.

For `COc1cc(/C=C2\SC(=O)N(CC(=O)Nc3nc(-c4ccc(Cl)cc4)cs3)C2=O)cc(OC)c1OC` [compound 7d, (Z)-2-(5-(3,4,5-Trimethoxybenzylidene)thiazolidin-2,4-dion-3-yl)-N-(4-(4-chlorophenyl)thiazol-2-yl)acetamide], the IC50 [1] was 33.4 ± 1 µM, the IC50 [2] was 34.1 ± 0.7 µM and the IC50 [3] was 6.4 ± 0.9 µM. For the same compound, the IC50 [4] was 36.1 ± 1 µM, the IC50 [5] was greater than 100 µM and the “Topoisomerase Inhibition hTopo I” value ([6]; 10 µM) was “−”. The “hTopo I activity inhibition (in words)” value ([6]; 10 µM, 1 h, 37 °C) was “not able to inhibit the relaxation activity”, the “Topoisomerase Inhibition hTopo II” value ([7]; 10 µM) was “−” and the “Topoisomerase Inhibition hTopo II” value ([7]; 50 µM) was “+”.

In the case of `COc1cc(/C=C2\SC(=O)N(CC(=O)Nc3nc4ccccc4s3)C2=O)cc(OC)c1OC` [compound 7f, (Z)-2-(5-(3,4,5-Trimethoxybenzylidene)thiazolidin-2,4-dion-3-yl)-N-(benzo[d]thiazol-2-yl)acetamide], the IC50 [1] is reported as 50.5 ± 0.8 µM, the IC50 [2] is reported as 17.4 ± 1.1 µM and the IC50 [3] is reported as 24.6 ± 1.1 µM. For the same compound, the IC50 [4] was greater than 100 µM, the IC50 [5] was greater than 100 µM and the “Topoisomerase Inhibition hTopo I” value ([6]; 10 µM) was “+”. The “Topoisomerase Inhibition hTopo II” value ([7]; 10 µM) was “−” and the “Topoisomerase Inhibition hTopo II” value ([7]; 50 µM) was “+”.

In the case of `Cc1c2ccncc2c(C)c2c1[nH]c1ccccc12` [ellipticine, reference compound], the IC50 [1] is reported as 1.73 ± 0.4 µM, the IC50 [2] is reported as 1.15 ± 0.5 µM and the IC50 [3] is reported as 1.33 ± 0.9 µM. For the same compound, the IC50 [4] was 0.97 ± 0.1 µM, the IC50 [5] was 1.09 ± 0.1 µM and the “Topoisomerase Inhibition hTopo I” value ([6]; 10 µM) was “+”. For the same compound, the “hTopo I activity inhibition (in words)” value ([6]; 10 µM, 1 h, 37 °C) was “able to block the hTopo I activity”, the “Topoisomerase Inhibition hTopo I” value ([6]; 50 µM) was “+” and the “hTopo I activity inhibition (in words)” value ([6]; 50 µM) was “able to block the hTopo I activity”. For the same compound, the “Topoisomerase Inhibition hTopo II” value ([7]; 10 µM) was “+/−”, the “Topoisomerase Inhibition hTopo II” value ([7]; 50 µM) was “+” and the “hTopo II activity inhibition (in words)” value ([7]; 50 µM) was “totally block”.

Reference: article PMC10384675, “Novel Thiazolidine-2,4-dione-trimethoxybenzene-thiazole Hybrids as Human Topoisomerases Inhibitors” (Pharmaceuticals, 2023)
